Blank lines part the entries; values can stand above or below the compound they belong to.
What was measured:
[1] = system: FAM-MG-36-12 (DNA, aptamer) CCATGCGACGGACAGCACGTGTCACCGCGATCAGCC; assay: graphene oxide FRET fluorescence recovery; settings: 137 mM NaCl, 2.7 mM KCl, 1 mM CaCl2, 0.5 mM MgCl2; DPBS pH 7.4, room temperature; 10 nM aptamer on GO; compound at twice the MG concentration
[2] = system: FAM-MG-36-17 (DNA, aptamer) CGCAGCGCGGCAGACAGTCAGGCTCAGCACGTGGCA; assay: graphene oxide FRET fluorescence recovery; settings: 137 mM NaCl, 2.7 mM KCl, 1 mM CaCl2, 0.5 mM MgCl2; DPBS pH 7.4, room temperature; 10 nM aptamer on GO; compound at twice the MG concentration
[3] = system: FAM-MG-76-16-6A (DNA, aptamer) AAAAAAGTTCGTGGTGTGCTGGATGTCCACCCGACAGCCAGTCACGCGCATCGTACAGACCGTGACACATCCAGCAGCACGA; assay: graphene oxide FRET fluorescence recovery; settings: 137 mM NaCl, 2.7 mM KCl, 1 mM CaCl2, 0.5 mM MgCl2; DPBS pH 7.4, room temperature; 10 nM aptamer on GO; compound at twice the MG concentration
[4] = system: MG-36-12 (DNA, aptamer) CCATGCGACGGACAGCACGTGTCACCGCGATCAGCC; assay: ITC; settings: 137 mM NaCl, 2.7 mM KCl, 1 mM CaCl2, 0.5 mM MgCl2; DPBS pH 7.4, 25 °C; 2 mM MG into 5 μM aptamer; one-site model
[5] = system: MG-36-16 (DNA, aptamer) CCACCCGACAGCCAGTCACGCGCATCGTACAGACCG; assay: ITC; settings: 137 mM NaCl, 2.7 mM KCl, 1 mM CaCl2, 0.5 mM MgCl2; DPBS pH 7.4, 25 °C; 2 mM MG into 5 μM aptamer; one-site model
[6] = system: MG-36-17 (DNA, aptamer) CGCAGCGCGGCAGACAGTCAGGCTCAGCACGTGGCA; assay: ITC; settings: 137 mM NaCl, 2.7 mM KCl, 1 mM CaCl2, 0.5 mM MgCl2; DPBS pH 7.4, 25 °C; 2 mM MG into 5 μM aptamer; one-site model
[7] = system: MG-1 (DNA, aptamer) CCGCCACAGGACAGCCAGTCTGATCGCCATGACGAC; assay: ITC; settings: 137 mM NaCl, 2.7 mM KCl, 1 mM CaCl2, 0.5 mM MgCl2; DPBS pH 7.4, 25 °C; screen with 100 μM candidate and 10 mM MG; weak thermal variation
[8] = system: MG-2 (DNA, aptamer) AGCCCGAGCTGCAGCCAGAATGTGCCACGTGTACGT; assay: ITC; settings: 137 mM NaCl, 2.7 mM KCl, 1 mM CaCl2, 0.5 mM MgCl2; DPBS pH 7.4, 25 °C; screen with 100 μM candidate and 10 mM MG; weak thermal variation
[9] = system: MG-3 (DNA, aptamer) CGAGACACAGTCACGTGCATCCAGTCAGCATGCGTC; assay: ITC; settings: 137 mM NaCl, 2.7 mM KCl, 1 mM CaCl2, 0.5 mM MgCl2; DPBS pH 7.4, 25 °C; screen with 100 μM candidate and 10 mM MG; weak thermal variation
[10] = system: MG-4 (DNA, aptamer) TGCAACACAACAGCCAGTCATGCCGGTGCACAGTCA; assay: ITC; settings: 137 mM NaCl, 2.7 mM KCl, 1 mM CaCl2, 0.5 mM MgCl2; DPBS pH 7.4, 25 °C; screen with 100 μM candidate and 10 mM MG; weak thermal variation
[11] = system: MG-5 (DNA, aptamer) CCCCGACAGCCGGCACAATGTGTCTGCCACGGACGT; assay: ITC; settings: 137 mM NaCl, 2.7 mM KCl, 1 mM CaCl2, 0.5 mM MgCl2; DPBS pH 7.4, 25 °C; screen with 100 μM candidate and 10 mM MG; weak thermal variation
[12] = system: MG-6 (DNA, aptamer) CGCAACGCGGCAACAGAGCACAGATCGCACAGACTG; assay: ITC; settings: 137 mM NaCl, 2.7 mM KCl, 1 mM CaCl2, 0.5 mM MgCl2; DPBS pH 7.4, 25 °C; screen with 100 μM candidate and 10 mM MG; weak thermal variation
[13] = system: MG-7 (DNA, aptamer) CGAGCCGAACGAGACGTCCAGTCCGTGCCCACGCAC; assay: ITC; settings: 137 mM NaCl, 2.7 mM KCl, 1 mM CaCl2, 0.5 mM MgCl2; DPBS pH 7.4, 25 °C; screen with 100 μM candidate and 10 mM MG; weak thermal variation
[14] = system: MG-8 (DNA, aptamer) TGTGCCCACAACTCCAGTCACGTTCGTCCAGCTCAG; assay: ITC; settings: 137 mM NaCl, 2.7 mM KCl, 1 mM CaCl2, 0.5 mM MgCl2; DPBS pH 7.4, 25 °C; screen with 100 μM candidate and 10 mM MG; weak thermal variation
[15] = system: MG-9 (DNA, aptamer) TCTCGCAACAGCCAGCGTCATGTGACCACGGAACCA; assay: ITC; settings: 137 mM NaCl, 2.7 mM KCl, 1 mM CaCl2, 0.5 mM MgCl2; DPBS pH 7.4, 25 °C; screen with 100 μM candidate and 10 mM MG; weak thermal variation
[16] = system: MG-10 (DNA, aptamer) CGCGCAGCGGCAGACAGTCAGACTGCGACGCACGTT; assay: ITC; settings: 137 mM NaCl, 2.7 mM KCl, 1 mM CaCl2, 0.5 mM MgCl2; DPBS pH 7.4, 25 °C; screen with 100 μM candidate and 10 mM MG; weak thermal variation
[17] = system: MG-11 (DNA, aptamer) CATGCCCAACGACATGCAGCACGTGGCCATGCACAA; assay: ITC; settings: 137 mM NaCl, 2.7 mM KCl, 1 mM CaCl2, 0.5 mM MgCl2; DPBS pH 7.4, 25 °C; screen with 100 μM candidate and 10 mM MG; weak thermal variation
[18] = system: MG-13 (DNA, aptamer) ACGCATCGCGAACAGCCGTGCCGTGTCCACGTACAG; assay: ITC; settings: 137 mM NaCl, 2.7 mM KCl, 1 mM CaCl2, 0.5 mM MgCl2; DPBS pH 7.4, 25 °C; screen with 100 μM candidate and 10 mM MG; weak thermal variation
[19] = system: MG-14 (DNA, aptamer) CACCGCCAGGGACAGCCAGTCACGTAGCCCGGAACG; assay: ITC; settings: 137 mM NaCl, 2.7 mM KCl, 1 mM CaCl2, 0.5 mM MgCl2; DPBS pH 7.4, 25 °C; screen with 100 μM candidate and 10 mM MG; weak thermal variation
[20] = system: MG-15 (DNA, aptamer) CGGCCAGACGACAGCCAGTCACCGGACACGATCAGG; assay: ITC; settings: 137 mM NaCl, 2.7 mM KCl, 1 mM CaCl2, 0.5 mM MgCl2; DPBS pH 7.4, 25 °C; screen with 100 μM candidate and 10 mM MG; weak thermal variation
[21] = system: MG-18 (DNA, aptamer) CCGCAGCACGGTCGTACAGCAGCTGCCACGGCATCC; assay: ITC; settings: 137 mM NaCl, 2.7 mM KCl, 1 mM CaCl2, 0.5 mM MgCl2; DPBS pH 7.4, 25 °C; screen with 100 μM candidate and 10 mM MG; weak thermal variation
[22] = system: MG-19 (DNA, aptamer) CGCAGACAGCCAGTCAGGGAGCGTCCAGTCCGACAC; assay: ITC; settings: 137 mM NaCl, 2.7 mM KCl, 1 mM CaCl2, 0.5 mM MgCl2; DPBS pH 7.4, 25 °C; screen with 100 μM candidate and 10 mM MG; weak thermal variation
[23] = system: MG-20 (DNA, aptamer) CGCACAGCAAGACAGCCAGTCAACAGCCGCGAATGT; assay: ITC; settings: 137 mM NaCl, 2.7 mM KCl, 1 mM CaCl2, 0.5 mM MgCl2; DPBS pH 7.4, 25 °C; screen with 100 μM candidate and 10 mM MG; weak thermal variation
[24] = system: MG-21 (DNA, aptamer) CCATGCAGCCAGCGTCCACCGTCCGTACAGTACGTG; assay: ITC; settings: 137 mM NaCl, 2.7 mM KCl, 1 mM CaCl2, 0.5 mM MgCl2; DPBS pH 7.4, 25 °C; screen with 100 μM candidate and 10 mM MG; weak thermal variation
[25] = system: MG-22 (DNA, aptamer) CGCGCACAGACAGCGTCATGGCCACGTACAGTTCCT; assay: ITC; settings: 137 mM NaCl, 2.7 mM KCl, 1 mM CaCl2, 0.5 mM MgCl2; DPBS pH 7.4, 25 °C; screen with 100 μM candidate and 10 mM MG; weak thermal variation
[26] = system: MG-23 (DNA, aptamer) CGCTACGACAGACAGCGTCGAGCACACAACGTTGCG; assay: ITC; settings: 137 mM NaCl, 2.7 mM KCl, 1 mM CaCl2, 0.5 mM MgCl2; DPBS pH 7.4, 25 °C; screen with 100 μM candidate and 10 mM MG; weak thermal variation
[27] = system: MG-24 (DNA, aptamer) ACGCACGTACGGCCAGTCATATGCGCACCGCGTTCA; assay: ITC; settings: 137 mM NaCl, 2.7 mM KCl, 1 mM CaCl2, 0.5 mM MgCl2; DPBS pH 7.4, 25 °C; screen with 100 μM candidate and 10 mM MG; weak thermal variation

binding [1]: no | binding [2]: no
Compound: Cc1cc(C)nc(NS(=O)(=O)c2ccc(N)cc2)n1

binding [1]: no
Compound: NN1CCOC1=O

binding [1]: no
Compound: NNC(N)=O

binding [1]: no
Compound: Nc1ccc(S(=O)(=O)Nc2ccccn2)cc1

binding [1]: no | binding [2]: no | binding [3]: no
Compound: O=C(N[C@H](CO)[C@H](O)c1ccc([N+](=O)[O-])cc1)C(Cl)Cl

The next lines start with the compound.

Compound: CN(C)c1ccc(C(=C2C=CC(=[N+](C)C)C=C2)c2ccc(N(C)C)cc2)cc1
binding [1]: no | binding [2]: no | binding [3]: no

Compound: CN(C)c1ccc(C(=C2C=CC(=[N+](C)C)C=C2)c2ccccc2)cc1
Kd [4]: 169.78 µM | Kd [5]: 71.94 µM | Kd [6]: 102.46 µM | binding [7]: no | binding [8]: no | binding [9]: no | binding [10]: no | binding [11]: no | binding [12]: no | binding [13]: no | binding [14]: no | binding [15]: no | binding [16]: no | binding [17]: no | binding [18]: no | binding [19]: no | binding [20]: no | binding [21]: no | binding [22]: no | binding [23]: no | binding [24]: no | binding [25]: no | binding [26]: no | binding [27]: no

Compound: CN(C)c1ccc(C(c2ccccc2)c2ccc(N(C)C)cc2)cc1
binding [1]: no | binding [2]: no | binding [3]: no

Compound: NN1CC(=O)NC1=O
binding [1]: no

Compound: NN1CC(CN2CCOCC2)OC1=O (stereo not shown)
binding [1]: no
